Assay [1] deals with Norovirus. Kind of assay: Suspension testing: Norovirus-positive stool in suspension, test agent, PBST neutralization, IMS bead capture, qRT-PCR. Further details: species or system human. To be noted: for antiviral activity against Norovirus (in words): nanosilver at any concentration tested, alcohol up to 70%; for Log Reduction: Suspension. (Quantitative PCR measures a nucleic acid by following its amplification.)

Assay [2] relates to Human Norovirus. Briefly: Hard surface testing: Norovirus-positive stool dried on surface, test agent, PBST neutralization, IMS bead capture, qRT-PCR. Here is the method: For this method, a Norovirus-positive human stool sample was allowed to dry on the surface of a material. A sterilized surface material (e.g., stainless steel, ceramic, porcelain, or fabric, etc.), in this case a round stainless steel plate, was placed into the center of a sterile deep Petri dish. 20 μl of Norovirus-positive human stool sample was added to the center of the stainless steel plate. The stool sample was dried onto the surface of the material for 30 minutes at room temperature.
100 μl of a test agent (e.g., a chemical disinfectant) was added on top of the dried stool sample. 100 μl of a neutral buffer, phosphate buffered saline-TWEEN® 20 (polysorbate) (PBST), was used as a negative control (in place of the test agent). 100 μl of 20% household bleach, (10500 ppm sodium hypochlorite, prepared fresh) was used as a positive control (in place of the test agent). The sample and the test agent, neutral buffer, and either 20% household bleach or 10500 ppm sodium hypochlorite were incubated at room temperature for as short as one minute to as long as 60 minutes.
40 ml of PBST was added over the surface to fully submerge the surface material and to dislodge the entire dried stool sample. 40 ml PBST acts as a neutralizer for the test compound by dilution. If necessary, the dried stool sample was scraped with the end of a sterile pipette tip. The mixture was shaken for 15 minutes (at ˜150 rpm) in an orbital shaker at room temperature.
The supernatant is transferred to a 50 ml screw cap centrifuge tube (or similar container). 10-100 μl of Norovirus specific antibody conjugated IMS beads were added, and the resulting mixture was incubated for 1-2 hours with end over rotation (5-10 RPM). The Norovirus specific antibody was monoclonal antibody P2B2 (Kim Laboratories, Inc., Rantoul, Ill.). A tube was placed in a magnetic stand for 15 minutes to capture the IMS beads. The supernatant was removed, with care being taken not to dislodge the IMS beads. […]

As for `O=C(O)CC(O)(CC(=O)O)C(=O)O` [Citric Acid Solution, Citric Acid], the “antiviral activity against Norovirus (in words)” value in assay [1] (Suspension testing) was “ineffective”. For the same molecule, the “Log Reduction” value in assay [1] (0.6%) is 1.26 log.

Consider `CCO` [Ethanol solution, Ethanol], for which, in assay [1] (70%), the “Log Reduction” value is reported as 1.3 log.

Take `OCl` [Sodium Hypochlorite]: the “Norovirus disinfection (in words)” value in assay [1] (Suspension testing, bleach dilution more than 2-3 weeks old, data not shown) was “not effective”; in assay [2] (Hard surface testing, bleach dilution more than 2-3 weeks old), “not effective”. Also, in assay [1] (Suspension testing), the “antiviral activity against Norovirus (in words)” value is recorded as “showed antiviral activity”. Besides, the “Log Reduction” value is reported as over 5 log in assay [1] (20% of household bleach by Clorox brand) and over 5 log in assay [2] (Hard surface (porcelain tile), 20% of household bleach by Clorox brand). The “antiviral activity against Human Norovirus (in words)” value in assay [2] (Hard surface testing, nanosilver at any concentration tested) was “showed antiviral activity”.

Regarding `CCO` [alcohol], the “antiviral activity against Norovirus (in words)” value in assay [1] (Suspension testing) is reported as “ineffective”.

For the molecule `OO` [hydrogen peroxide], the “antiviral activity against Norovirus (in words)” value in assay [1] (Suspension testing) was “ineffective”.

Turning to `CC(O)C(=O)O` (centres unmarked) [lactic acid], in assay [1] (Suspension testing), the “antiviral activity against Norovirus (in words)” value was “ineffective”.

With `O=S(=O)([O-])O[O-].[K+].[K+]` [potassium peroxymonosulfate], the “antiviral activity against Norovirus (in words)” value in assay [1] (Suspension testing) was “ineffective”.

With Povidone Iodine, the “Log Reduction” value in assay [1] (5%) is 1.1 log.
